Results on five compounds are retold here after US6939303B2, “Method and system of determining cardiac contractility” (Provecto Tecnico R-2000, Ca, priority 1999, dated 2005).

Assay [1] concerns normal subjects and patients with coronary artery disease. Put plainly: Cardiac contractility with phenylephrine, data of El-Tobgi et al. (Example 5). The assay is classed as in vivo, human. As for the experimental part:
(§1) The capability of the method of the present invention to assess cardiac contractility was evaluated using data from several experiments published in the literature and suitable for analysis. In this approach, afterload in the method was expressed as systolic pressure. Since different methodologies to measure cardiac contractility were used, the comparison between them was attained by analyzing the amount of changes (delta values) and were statistically treated using paired t test, ANOVA, correlation, and agreement between methods when applicable, as, for example, described in Lancet, Vol. 1, pages 307 to 310 (1986) by Bland et al.
Cardiovascular data was utilized from “Left Ventricular Function in Coronary Artery Disease,” J. Am. Coll. Cardiol., Vol. 3, pages 781 to 788 (1984) by El-Tobgi et al. In this study, normal subjects (group I) were compared with two groups of patients with coronary artery disease (groups II and III, the last one with ventricular dysfunction) and studied with tip-manometer catheter and ventriculography measurements. In basal conditions, the method of this invention behaves similar to the ejection fraction in detecting depression in cardiac contractility in group III (−17.2% and −18.0%, respectively).

Assay [2] deals with Conscious Dog. Put plainly: Changes in preload, afterload and inotropic state, data of Mahler et al. (Example 13). The assay is classed as in vivo. Particulars: for Method of This Invention Avg. Value: Example 13, animals, control 100.0; for Change, method of the present invention: conscious dog. As for the experimental part:
as §1
Cardiovascular data was utilized from “Effects of Changes in Preload, Afterload and Inotropic State on Ejection and Isovolumic Phase Measures of Contractility in the Conscious Dog,” Am. J. Cardiol., Vol. 35, pages 623 to 634 (1975) by Mahler et al. In this study, increase in preload was attained by Ringer's solution infusion, and rise of blood pressure with phenylephrine administration. […] The method of this invention was less sensitive than the other indices to measure changes in the inotropic state induced with isoproterenol or propranolol.

In assay [3] the test system is normal subjects and patients with coronary artery disease. Particulars: cited from earlier work.
Assay [4] relates to Conscious Dog. Particulars: cited from earlier work; for Vcf Avg. Value (velocity of shortening) / dP/dT Avg. Value: Example 13, animals; for Change, Vcf / Change, dP/dt / Change, dP/dt DP40: conscious dog.
Assay [5] concerns patients, most of them with coronary artery disease. Description: Cardiac contractility under load or inotropic drugs, data of Takeuchi et al. (Examples 1 and 3). In kind it is in vivo, human. The following applies: for Alteration in cardiac contractility, method of this invention: change vs control. More on the design: key to C, cardiac contractility calculated with the method of this invention: relative contractility scale; control state C = 100. As for the experimental part: as §1
Hemodynamic data was utilized from Takeuchi et al. (“Single-Beat Estimation of the Slope of the End-Systolic Pressure-Volume Relation in the Human Left Ventricle”. Circulation, Vol. 83, pages 202 to 212 (1991)).
Initially, to calibrate the model of the method of this invention, the average normal (or control state) values were used: • Preload (end-diastolic volume)=70 (Pre_adj) • Afterload (Systolic pressure)=109 (After_adj) • Stroke volume (SV)=40 (SV_adj) • Cardiac contractility (C)=100 (C_adj) Thereafter, the C value in each case during angiotension infusion was calculated using its corresponding value of preload, afterload and stroke volume. For instance, for the first case receiving angiotenison, where:
The first step was to obtain the edge value for the tetrahedron for the control state using the standard mathematical equation for the volume of a tetrahedron: Edge=^3{overscore (6*sv—adj)} Therefore, for the control state, Edge=^3{overscore (6*40)}=6.214465 The next step was to obtain the unitary (u) values of preload (pre_u) and afterload (after_u).
Pre—u=68*(6.214465/70)=6.036908 [formula] In order to obtain the unitary (u) value of C, using the equation derived herein for cardiac contractility [formula] Therefore, the value of C (C_v) for Case 1 is: [formula] Thus, during angiotensin treatment, the corresponding C values for Cases 1 to 8 were calculated using the method of this invention to be as follows: […]
Cardiovascular data was utilized from “Single-beat Estimation of the Slope of the End-Systolic Pressure-Volume Relation in the Human Left Ventricle,” Circulation, Vol. 83, pages 202 to 212 (1991) by Takeuchi et al. This study involved 25 patients, most of them with coronary artery disease. […] Hemodynamic modifications were measured with high-fidelity micromanometer and ventriculography. […] The increase in cardiac contractility using dobutamine induced changes measured by the method of this invention was 23% in comparison to the measurements made with ejection fraction of 15% and with ESP/ESV of 32%.

Assay [6] shares this test system. More on the design: After_v, afterload (systolic pressure): unit not given beside the values. Particulars: cited from earlier work; for Alteration in cardiac contractility, ESP/ESV / Alteration in cardiac contractility, ejection fraction: change vs control.
Assay [7] deals with Conscious Dogs. Description: Contractile state with dobutamine and verapamil, data of Little et al. (Example 12). In kind it is in vivo, dog. As for the experimental part: as §1
Cardiovascular data was utilized from “Response of the Left Ventricular End-Systolic Pressure-Volume Relation in Conscious Dogs to a Wide Range of Contractile States,” Circulation, Vol. 78, pages 736 to 745 (1988) by Little et al. In this study, the contractile state was increased by dobutamine and decreased by verapamil.

The test system of assay [8] is Conscious Dogs. Particulars: cited from earlier work.
Setting [9] is: group I (normal subjects), increase in blood pressure with phenylephrine.
Setting [10] is: group III (coronary artery disease with ventricular dysfunction), with the increase in blood pressure.

Where “and” joins values, the source holds several entries; their conditions need not be identical. Identical values can stand only once. Like-named read-outs stand apart in the source and are kept apart here.

In the case of `CNC[C@H](O)c1cccc(O)c1` [Phenylephrine, phenylephrine], the “Method of This Invention Avg. Value” in assay [1] (Example 5, CAD) was 107.3. Further, the “Method of This Invention Avg. Value” in assay [1] (Example 5, CAD + VD) was 84.2. Besides, the “Method of This Invention Avg. Value” in assay [1] (Example 5, Healthy) was found to be 110.4. Moreover, the “Change in cardiac contractility, method of the present invention” value in assay [1] (setting [9]) was 10.4%. Moreover, the “Fall in cardiac contractility, method of this invention” value in assay [1] (setting [10]) was −15.8%. In addition, in the assay with Conscious Dog [2], the “Method of This Invention Avg. Value” worked out at 100.8 and the “Change, method of the present invention” value turned out to be 0.8%. In assay [3] (Example 5, CAD + VD), the “EF Avg. Value” is 50.5 percentage and the “ESP/ESV Avg. Value” was 5.0 mm Hg per ml. In addition, in assay [3] (Example 5, CAD), the “EF Avg. Value” is on record as 64.0 percentage and the “ESP/ESV Avg. Value” is 9.9 mm Hg per ml. Moreover, in assay [3] (Example 5, Healthy), the “EF Avg. Value” was 67.5 percentage and the “ESP/ESV Avg. Value” is on record as 10.4 mm Hg per ml. In addition, in assay [3] (setting [9]), the “Change in ejection fraction” value is recorded as −0.1%. In assay [3] (setting [10]), the “Fall in ESP/ESV” value is on record as −51.9% and the “Fall in ejection fraction” value is listed as −25.3%. For the same compound, in the assay on Conscious Dog [4], the “Vcf Avg. Value (velocity of shortening)” value is recorded as 1.61 circulation per second; the “dP/dT Avg. Value” is on record as 3670 mm Hg per second; the “Change, Vcf” value is on record as −26%; the “Change, dP/dt” value was −2%. Further, the “Change, dP/dt DP40” value in the assay on Conscious Dog [4] was 2%.
Take `O=[N+]([O-])OCC(CO[N+](=O)[O-])O[N+](=O)[O-]` [Nitroglycerin, nitroglycerin]: in assay [5], the “Alteration in cardiac contractility, method of this invention” value was −4%. Further, in assay [6], the “Alteration in cardiac contractility, ESP/ESV” value is 9% and the “Alteration in cardiac contractility, ejection fraction” value is recorded as 8.3%.
Consider `COc1ccc(CCN(C)CCCC(C#N)(c2ccc(OC)c(OC)c2)C(C)C)cc1OC` (stereo not drawn) [Verapamil, verapamil], for which the “Method of This Invention Avg. Value” with Conscious Dogs [7] (Example 12, animals, control 100.0) is 77.1. Also, the “Change in contractile state, method of this invention” value in the assay with Conscious Dogs [7] (dogs) was −23%. For the same compound, in the assay on Conscious Dogs [8] (Example 12, animals), the “ESP/ESV Avg. Value” is 5.1 mm Hg per ml. In addition, the “EF Avg. Value” in the assay with Conscious Dogs [8] (Example 12, animals, ejection fraction) is reported as 39.2 percentage. In the assay on Conscious Dogs [8] (dogs), the “Change in contractile state, ESP/ESV” value is given as −38.5%; the “Change in contractile state, dP/dt” value is −39.9%; the “Change in contractile state, ejection fraction” value is reported as −10.9%.
angiotensin: the “Alteration in cardiac contractility, method of this invention” value in assay [5] is 0.4%. Moreover, the “C, cardiac contractility calculated with the method of this invention” value in assay [5] (individual cases 1 to 8 during angiotensin treatment, one line per case, control state C=100) is 115.24 and 63.33 and 95.99 and 88.76 and 100.71 and 116.54 and 73.04 and 117.72. Besides, in assay [6], the “Alteration in cardiac contractility, ESP/ESV” value is on record as 9.1% and the “Alteration in cardiac contractility, ejection fraction” value was −10.3%. Further, the “SV_v, stroke volume” value in assay [6] (individual cases 1 to 8 receiving angiotensin, one line per case, control mean 40) was 41 and 38 and 30 and 34 and 40 and 50 and 36 and 60. Besides, the “Pre_v, preload (end-diastolic volume)” value in assay [6] (individual cases 1 to 8 receiving angiotensin, one line per case, control mean 70) was 68 and 119 and 66 and 78 and 79 and 82 and 95 and 93. Further, the “After_v, afterload (systolic pressure)” value in assay [6] (individual cases 1 to 8 receiving angiotensin, one line per case, control mean 109) was 142 (2×) and 155 and 176 and 164 and 156 and 145 and 125.
On to `CC(C)NCC(O)c1ccc(O)c(O)c1` (stereo not drawn) [Isoproterenol, isoproterenol], for which, in the assay with Conscious Dog [2], the “Method of This Invention Avg. Value” is given as 120.3 and the “Change, method of the present invention” value is 20.3%. Moreover, in the assay on Conscious Dog [4], the “Vcf Avg. Value (velocity of shortening)” value is listed as 2.83 circulation per second; the “dP/dT Avg. Value” was 5430 mm Hg per second; the “Change, Vcf” value is reported as 53%; the “Change, dP/dt” value was 55%. The “Change, dP/dt DP40” value in the assay with Conscious Dog [4] was 56%.
